# ChEMBL document CHEMBL1146979, “Structure-activity relationship of thiopyrimidines as mGluR5 antagonists” (Bioorg Med Chem Lett, 2006)
# Key:
# [1] = target: Metabotropic glutamate receptor 5 (Homo sapiens, UniProt P41594); test: Inhibition of glutamate-induced calcium influx in human mGluR5d by FLIPR; assay type: functional
# [2] = target: Metabotropic glutamate receptor 7 (Homo sapiens) (UniProt Q14831); test: Activity against mGluR7
# [3] = target: Metabotropic glutamate receptor 1 (Homo sapiens) (UniProt Q13255); test: Activity against mGluR1
# [4] = target: Metabotropic glutamate receptor 4 (Homo sapiens) (UniProt Q14833); test: Activity against mGluR4
# [5] = target: Metabotropic glutamate receptor 2 (Homo sapiens) (UniProt Q14416); test: Activity against mGluR2
# [6] = target: Metabotropic glutamate receptor 6 (Homo sapiens) (UniProt O15303); test: Activity against mGluR6
# [7] = target: Metabotropic glutamate receptor 3 (Homo sapiens) (UniProt Q14832); test: Activity against mGluR3
# [8] = target: Metabotropic glutamate receptor 8 (Homo sapiens) (UniProt O00222); test: Activity against mGluR8
# [9] = Clearance in rat liver microsomes; assay type: ADME, Microsome
# [10] = Clearance in human liver microsomes; assay type: ADME, Microsome
# Metabotropic glutamate receptor 5, sequence (P41594 whole entry): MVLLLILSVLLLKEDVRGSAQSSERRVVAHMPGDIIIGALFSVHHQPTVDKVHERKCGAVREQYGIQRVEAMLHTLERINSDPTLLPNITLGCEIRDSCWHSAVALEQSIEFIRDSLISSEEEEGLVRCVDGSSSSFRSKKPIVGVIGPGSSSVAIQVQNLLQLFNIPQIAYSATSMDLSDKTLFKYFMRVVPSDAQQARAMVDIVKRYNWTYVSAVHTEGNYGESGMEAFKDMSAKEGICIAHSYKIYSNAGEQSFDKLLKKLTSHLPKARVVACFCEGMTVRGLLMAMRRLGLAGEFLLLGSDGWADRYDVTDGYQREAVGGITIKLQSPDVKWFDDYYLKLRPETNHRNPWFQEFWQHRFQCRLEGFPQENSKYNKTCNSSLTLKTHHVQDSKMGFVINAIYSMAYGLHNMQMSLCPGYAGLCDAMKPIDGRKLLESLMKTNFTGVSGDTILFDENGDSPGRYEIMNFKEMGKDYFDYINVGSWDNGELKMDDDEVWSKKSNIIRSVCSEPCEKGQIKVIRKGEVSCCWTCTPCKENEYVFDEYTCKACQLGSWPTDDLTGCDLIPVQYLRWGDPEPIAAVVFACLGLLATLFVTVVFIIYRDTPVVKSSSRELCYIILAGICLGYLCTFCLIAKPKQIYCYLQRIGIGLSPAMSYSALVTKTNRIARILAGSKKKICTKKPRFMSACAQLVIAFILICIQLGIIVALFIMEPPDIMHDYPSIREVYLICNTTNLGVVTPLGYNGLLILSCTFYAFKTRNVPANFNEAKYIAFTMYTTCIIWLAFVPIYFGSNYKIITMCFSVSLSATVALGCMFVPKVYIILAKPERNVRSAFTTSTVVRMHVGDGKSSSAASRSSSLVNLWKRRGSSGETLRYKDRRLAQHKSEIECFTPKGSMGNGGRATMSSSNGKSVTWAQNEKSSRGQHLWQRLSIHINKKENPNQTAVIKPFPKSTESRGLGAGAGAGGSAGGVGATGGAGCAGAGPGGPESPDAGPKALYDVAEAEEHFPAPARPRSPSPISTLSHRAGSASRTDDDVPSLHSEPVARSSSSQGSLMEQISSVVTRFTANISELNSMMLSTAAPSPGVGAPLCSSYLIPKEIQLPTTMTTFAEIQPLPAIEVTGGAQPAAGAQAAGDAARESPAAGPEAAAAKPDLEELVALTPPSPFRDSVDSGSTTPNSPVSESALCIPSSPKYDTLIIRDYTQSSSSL
# Metabotropic glutamate receptor 3 (Homo sapiens), sequence (Q14832 23-879 limits assumed): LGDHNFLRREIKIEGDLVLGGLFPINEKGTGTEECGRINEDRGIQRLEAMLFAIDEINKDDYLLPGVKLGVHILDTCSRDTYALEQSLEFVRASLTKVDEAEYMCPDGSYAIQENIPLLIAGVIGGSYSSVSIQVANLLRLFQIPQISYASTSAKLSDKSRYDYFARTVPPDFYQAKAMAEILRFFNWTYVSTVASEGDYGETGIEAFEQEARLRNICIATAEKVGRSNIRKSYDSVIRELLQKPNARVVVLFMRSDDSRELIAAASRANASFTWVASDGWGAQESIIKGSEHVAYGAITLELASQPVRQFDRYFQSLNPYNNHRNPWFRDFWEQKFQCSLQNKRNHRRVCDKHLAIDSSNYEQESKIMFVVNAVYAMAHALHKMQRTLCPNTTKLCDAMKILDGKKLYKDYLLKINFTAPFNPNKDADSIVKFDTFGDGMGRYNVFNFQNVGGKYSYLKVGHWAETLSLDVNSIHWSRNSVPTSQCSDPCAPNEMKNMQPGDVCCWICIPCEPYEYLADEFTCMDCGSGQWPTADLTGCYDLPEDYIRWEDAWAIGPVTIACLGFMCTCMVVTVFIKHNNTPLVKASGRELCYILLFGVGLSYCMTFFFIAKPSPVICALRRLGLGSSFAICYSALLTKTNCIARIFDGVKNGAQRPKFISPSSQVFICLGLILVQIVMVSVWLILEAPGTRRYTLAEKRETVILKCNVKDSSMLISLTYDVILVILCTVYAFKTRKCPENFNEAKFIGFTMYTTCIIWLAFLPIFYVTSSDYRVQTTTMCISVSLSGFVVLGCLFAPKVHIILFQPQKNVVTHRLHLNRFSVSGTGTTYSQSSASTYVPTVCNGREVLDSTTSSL
# Metabotropic glutamate receptor 7 (Homo sapiens), sequence (Q14831 whole entry): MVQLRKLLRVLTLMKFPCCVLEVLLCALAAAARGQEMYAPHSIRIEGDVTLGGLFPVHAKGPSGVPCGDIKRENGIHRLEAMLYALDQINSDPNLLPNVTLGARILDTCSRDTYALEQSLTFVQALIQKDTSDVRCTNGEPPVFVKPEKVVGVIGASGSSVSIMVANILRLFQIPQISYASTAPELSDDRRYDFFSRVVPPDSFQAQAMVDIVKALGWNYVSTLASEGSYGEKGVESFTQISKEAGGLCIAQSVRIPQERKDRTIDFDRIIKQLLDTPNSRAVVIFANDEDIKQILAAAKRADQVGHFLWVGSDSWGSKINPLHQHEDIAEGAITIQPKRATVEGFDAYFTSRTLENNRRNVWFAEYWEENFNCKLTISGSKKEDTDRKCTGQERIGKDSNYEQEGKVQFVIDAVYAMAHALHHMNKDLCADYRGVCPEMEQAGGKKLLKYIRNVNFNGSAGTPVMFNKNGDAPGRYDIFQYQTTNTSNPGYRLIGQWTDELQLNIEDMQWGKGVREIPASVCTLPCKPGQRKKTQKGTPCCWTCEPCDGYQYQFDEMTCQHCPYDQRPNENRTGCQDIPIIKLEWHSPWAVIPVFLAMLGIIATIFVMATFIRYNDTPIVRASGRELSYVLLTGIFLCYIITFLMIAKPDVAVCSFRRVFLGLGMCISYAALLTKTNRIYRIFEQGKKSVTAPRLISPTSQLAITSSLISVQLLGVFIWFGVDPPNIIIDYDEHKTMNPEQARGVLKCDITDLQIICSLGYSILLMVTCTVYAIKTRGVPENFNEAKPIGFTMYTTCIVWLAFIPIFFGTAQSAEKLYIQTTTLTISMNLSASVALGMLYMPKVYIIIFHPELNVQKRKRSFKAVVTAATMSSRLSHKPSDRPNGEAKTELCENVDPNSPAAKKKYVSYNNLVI
# Metabotropic glutamate receptor 8 (Homo sapiens), sequence (O00222 whole entry): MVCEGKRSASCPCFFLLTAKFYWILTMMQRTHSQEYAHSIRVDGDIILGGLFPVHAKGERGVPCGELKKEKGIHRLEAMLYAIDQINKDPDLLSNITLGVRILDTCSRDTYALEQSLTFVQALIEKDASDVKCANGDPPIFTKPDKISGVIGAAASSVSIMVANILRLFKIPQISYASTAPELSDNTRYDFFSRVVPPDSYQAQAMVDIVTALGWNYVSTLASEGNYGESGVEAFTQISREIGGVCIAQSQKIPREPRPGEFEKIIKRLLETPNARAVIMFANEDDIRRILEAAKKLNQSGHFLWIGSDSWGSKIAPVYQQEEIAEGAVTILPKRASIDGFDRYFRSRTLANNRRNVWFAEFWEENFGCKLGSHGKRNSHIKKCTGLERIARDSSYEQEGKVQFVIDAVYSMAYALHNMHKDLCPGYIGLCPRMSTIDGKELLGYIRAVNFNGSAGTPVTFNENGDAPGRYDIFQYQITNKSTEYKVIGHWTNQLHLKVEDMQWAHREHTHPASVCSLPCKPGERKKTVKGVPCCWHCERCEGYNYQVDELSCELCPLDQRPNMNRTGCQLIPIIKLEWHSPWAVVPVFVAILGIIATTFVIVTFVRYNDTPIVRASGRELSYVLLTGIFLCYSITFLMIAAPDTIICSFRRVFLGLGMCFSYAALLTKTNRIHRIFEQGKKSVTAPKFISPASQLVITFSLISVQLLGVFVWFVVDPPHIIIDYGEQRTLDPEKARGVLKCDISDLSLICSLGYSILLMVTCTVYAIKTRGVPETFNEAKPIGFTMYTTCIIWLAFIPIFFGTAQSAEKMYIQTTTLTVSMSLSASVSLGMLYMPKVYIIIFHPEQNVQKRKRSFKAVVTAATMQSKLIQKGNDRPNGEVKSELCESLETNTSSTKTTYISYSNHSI
# Metabotropic glutamate receptor 6 (Homo sapiens), sequence (O15303 whole entry): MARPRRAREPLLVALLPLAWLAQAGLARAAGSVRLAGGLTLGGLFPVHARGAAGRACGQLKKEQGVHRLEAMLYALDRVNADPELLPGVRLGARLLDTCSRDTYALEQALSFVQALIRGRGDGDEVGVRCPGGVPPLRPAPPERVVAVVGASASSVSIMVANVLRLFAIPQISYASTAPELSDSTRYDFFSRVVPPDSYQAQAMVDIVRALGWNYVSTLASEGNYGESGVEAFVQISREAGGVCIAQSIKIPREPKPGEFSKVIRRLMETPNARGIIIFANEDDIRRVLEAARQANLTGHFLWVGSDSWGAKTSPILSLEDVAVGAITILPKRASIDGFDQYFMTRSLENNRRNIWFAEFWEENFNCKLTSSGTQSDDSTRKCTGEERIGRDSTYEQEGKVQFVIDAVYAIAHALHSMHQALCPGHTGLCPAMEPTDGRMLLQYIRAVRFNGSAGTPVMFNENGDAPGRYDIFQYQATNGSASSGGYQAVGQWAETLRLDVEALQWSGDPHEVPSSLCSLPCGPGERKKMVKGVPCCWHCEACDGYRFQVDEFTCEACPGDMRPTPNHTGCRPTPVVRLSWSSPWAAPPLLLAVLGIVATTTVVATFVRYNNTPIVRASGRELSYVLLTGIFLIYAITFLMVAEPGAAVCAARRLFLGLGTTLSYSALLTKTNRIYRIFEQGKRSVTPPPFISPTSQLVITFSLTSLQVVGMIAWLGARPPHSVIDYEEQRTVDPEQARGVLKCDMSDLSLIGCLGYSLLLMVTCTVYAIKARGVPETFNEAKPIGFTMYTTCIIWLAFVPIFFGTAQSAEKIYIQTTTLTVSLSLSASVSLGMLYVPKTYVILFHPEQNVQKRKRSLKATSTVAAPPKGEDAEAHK
structure (smiles),measurement,setting,value
Clc1ccc(Sc2ccnc(-c3ccccn3)n2)cc1,IC50,[1]; read-out: IC50,0.32 µM
Clc1ccc(-c2ccnc(-c3ccccn3)n2)cc1Cl,IC50,[1],Not Active
Cc1cccc(-c2nccc(Sc3ccc(Cl)c(Cl)c3)n2)n1,Activity,[2],> 25 µM
same,Activity,[3],> 25 µM
same,Activity,[4],> 25 µM
same,Activity,[5],> 25 µM
same,IC50,[1]; read-out: IC50,0.39 µM
same,Activity,[6],> 25 µM
same,Activity,[7],> 25 µM
same,Activity,[8],> 25 µM
FC(F)(F)c1cccc(Sc2ccnc(-c3ccccn3)n2)c1,IC50,[1]; read-out: IC50,0.55 µM
Fc1ccc(-c2nccc(Sc3ccc(Cl)c(Cl)c3)n2)nc1,Activity,[2],> 25 µM
same,microsomal CLint,[9],90 µL/min/mg
same,Activity,[3],> 25 µM
same,Activity,[4],> 25 µM
same,Activity,[5],> 25 µM
same,microsomal CLint,[10],140 µL/min/mg
same,IC50,[1]; read-out: IC50,0.08 µM
same,Activity,[6],> 25 µM
same,Activity,[7],> 25 µM
same,Activity,[8],> 25 µM
Clc1ccc(Sc2ccnc(-c3ccccn3)n2)cc1Cl,microsomal CLint,[9],120 µL/min/mg
same,microsomal CLint,[10],90 µL/min/mg
same,IC50,[1]; read-out: IC50,0.09 µM
Fc1ccc(Sc2ccnc(-c3ccccn3)n2)cc1F,IC50,[1]; read-out: IC50,1.52 µM
FC(F)(F)c1ccc(Sc2ccnc(-c3ccccn3)n2)cc1,IC50,[1]; read-out: IC50,0.21 µM
Clc1cccc(Sc2ccnc(-c3ccccn3)n2)c1,IC50,[1]; read-out: IC50,0.62 µM
Clc1ccc(Sc2ccnc(-c3ccccn3)c2)cc1Cl,IC50,[1]; read-out: IC50,2.37 µM
Clc1ccc(Cc2ccnc(-c3ccccn3)n2)cc1,IC50,[1]; read-out: IC50,> 10 µM
Clc1ccc(Sc2ccnc(-c3ccncc3)n2)cc1,IC50,[1]; read-out: IC50,> 10 µM
Clc1ccc(Sc2cccc(-c3ccccn3)n2)cc1Cl,IC50,[1],Not Active
Clc1ccc(Nc2ccnc(-c3ccccn3)n2)cc1,IC50,[1]; read-out: IC50,> 10 µM
Clc1ccc(Sc2ccnc(-c3cccnc3)n2)cc1,IC50,[1]; read-out: IC50,> 10 µM
Brc1cccc(Sc2ccnc(-c3ccccn3)n2)c1,IC50,[1]; read-out: IC50,2.86 µM
OC(c1ccc(Cl)cc1)c1ccnc(-c2ccccn2)n1 (stereo not given),IC50,[1]; read-out: IC50,> 3 µM
Clc1ccc(Oc2ccnc(-c3ccccn3)n2)cc1,IC50,[1]; read-out: IC50,> 10 µM
Cc1cccc(Sc2ccnc(-c3ccccn3)n2)c1,IC50,[1]; read-out: IC50,2.3 µM
Clc1ccc(Sc2nccc(-c3ccccn3)n2)cc1Cl,IC50,[1],Not Active
Cc1cc(Sc2ccc(Cl)cc2)nc(-c2ccccn2)n1,IC50,[1]; read-out: IC50,1.25 µM
CC(=O)N(c1ccc(Cl)cc1)c1ccnc(-c2ccccn2)n1,IC50,[1]; read-out: IC50,> 10 µM
